The text below walks through data of patent US9199943B2, “2-(poly-substituted aryl)-6-amino-5-halo-4-pyrimidinecarboxylic acids and their use as herbicides” (Dow AgroSciences, LLC., priority 2006, dated 2015).

The test system of series [1] is ABUTH = velvetleaf (Abutilon theophrasti). As to the kind of experiment: General postemergence herbicidal activity, velvetleaf. The class given is in vivo. To be noted: Abutilon theophrasti, post-emergence, 336 h; post-emergent, 140 g ai/ha, visual score after 14 days (0 no injury, 100 complete kill). The protocol:
(§1) Seeds or nutlets of the desired test plant species were planted in Sun Gro MetroMix® 306 planting mixture, which typically has a pH of 6.0 to 6.8 and an organic matter content of about 30 percent, in plastic pots with a surface area of 64 square centimeters. When required to ensure good germination and healthy plants, a fungicide treatment and/or other chemical or physical treatment was applied. The plants were grown for 7-21 days in a greenhouse with an approximate 15 hour photoperiod which was maintained at about 23-29° C. during the day and 22-28° C. during the night. Nutrients and water were added on a regular basis and supplemental lighting was provided with overhead metal halide 1000-Watt lamps as necessary. The plants were employed for testing when they reached the first or second true leaf stage.
(§2) A weighed amount, determined by the highest rate to be tested, of each test compound was placed in a 25 mL glass vial and was dissolved in 4 mL of a 97:3 v/v (volume/volume) mixture of acetone and dimethyl sulfoxide (DMSO) to obtain concentrated stock solutions. […] The concentrated stock solutions obtained were diluted with 20 mL of an aqueous mixture containing acetone, water, isopropyl alcohol, DMSO, Atplus 411F crop oil concentrate, and Triton X-155 surfactant in a 48.5:39:10:1.5:1.0:0.02 v/v ratio to obtain spray solutions containing the highest application rates. Additional application rates were obtained by serial dilution of 12 mL of the high rate solution into a solution containing 2 mL of 97:3 v/v (volume/volume) mixture of acetone and dimethyl sulfoxide (DMSO) and 10 mL of an aqueous mixture containing acetone, water, isopropyl alcohol, DMSO, Atplus 411F crop oil concentrate, and Triton X-155 surfactant in a 48.5:39:10:1.5:1.0:0.02 v/v ratio to obtain ½×, ¼×, ⅛× and 1/16× rates of the high rate. Compound requirements are based upon a 12 mL application volume at a rate of 187 L/ha. Formulated compounds were applied to the plant material with an overhead Mandel track sprayer equipped with a 8002E nozzles calibrated to deliver 187 L/ha over an application area of 0.503 square meters at a spray height of 18 inches (43 cm) above the average plant canopy height. Control plants were sprayed in the same manner with the solvent blank.
(§3) The treated plants and control plants were placed in a greenhouse as described above and watered by sub-irrigation to prevent wash-off of the test compounds. After 14 days, the condition of the test plants as compared with that of the untreated plants was determined visually and scored on a scale of 0 to 100 percent where 0 corresponds to no injury and 100 corresponds to complete kill.
(§4) By applying the well-accepted probit analysis as described by J. Berkson in Journal of the […], 48, 565 (1953) and by D. Finney in “Probit Analysis” Cambridge University Press (1952), the above data can be used to calculate GR50 and GR80 values, which are defined as growth reduction factors that correspond to the effective dose of herbicide required to kill or control 50 percent or 80 percent, respectively, of a target plant.

The subject of series [2] is CHEAL = lambsquarter (Chenopodium album). As to the kind of experiment: General preemergence herbicidal activity, lambsquarter. Type of series: in vivo. Conditions: Chenopodium album, pre-emergence, 480 h; pre-emergent, 140 g ai/ha, visual score after 20-22 days. The source says: (§5) Seeds of the desired test plant species were planted in a soil matrix prepared by mixing a loam soil (43 percent silt, 19 percent clay, and 38 percent sand, with a pH of about 8.1 and an organic matter content of about 1.5 percent) and sand in a 70 to 30 ratio. The soil matrix was contained in plastic pots with a surface area of 113 square centimeters. When required to ensure good germination and healthy plants, a fungicide treatment and/or other chemical or physical treatment was applied. A weighed amount, determined by the highest rate to be tested, of each test compound was placed in a 25 mL glass vial and was dissolved in 6 mL of a 97:3 v/v (volume/volume) mixture of acetone and DMSO to obtain concentrated stock solutions. […] The stock solutions obtained were diluted with 18 mL of a 0.1% v/v aqueous solution of Tween® 20 surfactant to obtain spray solutions containing the highest application rate. Additional application rates were obtained by serial dilution of 12 mL of the high rate solution into a solution containing 3 mL of 97:3 v/v mixture of acetone and DMSO and 9 mL of the 0.1% v/v aqueous solution of Tween® 20 surfactant to obtain 1⁄2×, 1⁄4×, 1⁄8× and 1/16× rates of the high rate. Compound requirements are based upon a 12 mL application volume at a rate of 187 L/ha. Formulated compounds were applied to the plant material with an overhead Mandel track sprayer equipped with a […] nozzles calibrated to deliver 187 L/ha over an application area of 0.503 square meters at a spray height of 18 inches (43 cm) above the soil surface. Control plants were sprayed in the same manner with the solvent blank. The treated pots and control pots were placed in a greenhouse maintained with an approximate 15 hour photoperiod and temperatures of about 23-29° C. during the day and 22-28° C. during the night. Nutrients and water were added on a regular basis and supplemental lighting was provided with overhead metal halide 1000-Watt lamps as necessary. The water was added by top-irrigation. After 20-22 days, the condition of the test plants that germinated and grew as compared with that of the untreated plants that emerged and grew was determined visually and scored on a scale of 0 to 100 percent where 0 corresponds to no injury and 100 corresponds to complete kill or no emergence.

For series [3] the test system is unchanged. As to the kind of experiment: General postemergence herbicidal activity, lambsquarter. Type of series: in vivo. To be noted: Chenopodium album, post-emergence, 336 h; post-emergent, 140 g ai/ha, visual score after 14 days (0 no injury, 100 complete kill). The procedure: as §1, §2, §3, §4
The subject of series [4] is ABUTH = velvetleaf (Abutilon theophrasti). The series is described as follows: General preemergence herbicidal activity, velvetleaf. Conditions: Abutilon theophrasti, pre-emergence, 480 h; pre-emergent, 140 g ai/ha, visual score after 20-22 days. The class given is in vivo.
Source text: as §5

Series [5] has as its system HELAN = sunflower (Helianthus annuus). The series is described as follows: General preemergence herbicidal activity, sunflower. To be noted: Helianthus annuus, pre-emergence, 480 h; pre-emergent, 140 g ai/ha, visual score after 20-22 days. Type of series: in vivo.
Source text: as §5

The test system of series [6] is HELAN = sunflower (Helainthus annuus). The series is described as follows: General postemergence herbicidal activity, sunflower. Type of series: in vivo. To be noted: post-emergence, 336 h; post-emergent, 140 g ai/ha, visual score after 14 days (0 no injury, 100 complete kill). The protocol:
as §1, §2, §3, §4

In general, pest or weed control refers to the degree to which the test organism was suppressed or injured, in per cent. In general, melting point refers to the temperature of the solid-liquid transition. Take `COc1c(Cl)ccc(-c2nc(N)c(Cl)c(C(=O)O)n2)c1F` [Compound 15, 6-amino-5-chloro-2-(4-chloro-2-fluoro-3-methoxyphenyl)-pyrimidine-4-carboxylic acid]: the melting point is 172 to 173 °C. In series [1], this compound returned a pest or weed control at 140 g/ha of 100%. In addition, the pest or weed control at 140 g/ha in series [2] turned out to be 100%. This compound also showed a pest or weed control at 140 g/ha in series [3] of 100%. The pest or weed control at 140 g/ha in series [4] is 100%. Also, the pest or weed control at 140 g/ha in series [5] was found to be 100%. The compound also had a pest or weed control at 140 g/ha in series [6] of 100%.

For the compound `COC(=O)c1nc(-c2ccc(Cl)c(C)c2F)nc(N)c1Cl` [Compound 11, 6-Amino-5-chloro-2-(4-chloro-2-fluoro-3-methylphenyl)pyrimidine-4-carboxylic acid methyl ester], the melting point was 166 to 168 °C. This compound also registered a pest or weed control at 140 g/ha in series [1] of 95%. In series [2], the pest or weed control at 140 g/ha stood at 60%. For the same compound, in series [3], the pest or weed control at 140 g/ha came out at 95%. The compound further displayed a pest or weed control at 140 g/ha in series [4] of 100%. The compound also gave a pest or weed control at 140 g/ha in series [5] of 100%. In addition, the pest or weed control at 140 g/ha in series [6] is 100%.
